Test results taken from article PMC10153383, “Pharmacophore Variants of the Macrocyclic Peptide Triazole Inactivator of HIV-1 Env” (Research Square, 2023).
*1 amine or outer side, *2 acyl side, *3 side chain or, on linkers, in order; H or OH if unused. Where a SMILES comes first, the peptide text is derived from it. Bridges are numbered along the chain shown (N, C = ends). [ ]: non-standard residue; d: D form. X1 = O=C([C@@H]1C[C@H](n2cc(-c3ccc(-c4cccs4)cc3)nn2)CN1[*:1])[*:2]; Trp(5-Br) = N[C@@H](Cc1c[nH]c2ccc(Br)cc12)C(=O)O; Trp(1-Me) = Cn1cc(C[C@H](N)C(=O)O)c2ccccc21

Target: T1, YU2 gp120 (Human immunodeficiency virus type 1 group M subtype B, UniProt P35961)
T1 construct: The DNA for gp120YU-2 in pcDNA3.1 vector for transient transfection; made in house; host or cells: HEK-293F
Type: binding, HIV-1
Source text: A state-of-the-art Biacore S200 SPR optical biosensor, which can resolve dissociation rates of 0.1–1.0 s^−1, was employed to measure the YU2 gp120 binding kinetics of cPT’s. […] The insets in Fig. 3 show the binding isotherms plotted from the binding signals at steady state, as a function of peptide concentration. Reproducibility of the SPR binding assays was verified by running experiments at gp120 densities ranging from 10 to 29 RU/kDa. […] The calculated apparent (KD), the steady state affinities (eq KD) and experimental Rmax or maximum binding capacities for each gp120 surface are reported.
SPR experiments were performed on a Biacore S200 biosensor (Cytiva Global Life Sciences Solutions) at 25°C using PBS-P (10 mM Phosphate, 150 mM NaCl, pH 7.4, 0.005% P-20 and 2 or 5%DMSO) as the running and sample buffers. […] The 9 to 10 cPT concentrations were injected in duplicate spanning 1000-fold (~ 0.001 to 2.0 μM) at a flow rate of 75–100 μL/min where associations were monitored for 3 minutes and the final dissociation phase in running buffer monitored for 5 minutes for complete dissociation or by injecting two 9-second pulses of 10 mM glycine pH 2.0 to remove any bound analyte. […]

Row | Structure (SMILES) | increase in dissociation rate relative to parent peptide (SPR, MG-I-13 vs AAR029N2, MG-II-55 vs MG-II-20) [fold] | equilibrium binding isotherm KD, fold lower (affinity) versus AAR029N2 (SPR steady state isotherm, Fig. 3C inset) [fold]
1 | CC[C@H](C)[C@@H]1NC(=O)[C@H](CC(N)=O)NC(=O)[C@@H](N)CC(=O)NCCCC[C@@H](C(N)=O)NC(=O)[C@H](Cc2c[nH]c3ccc(Br)cc23)NC(=O)[C@@H]2C[C@H](n3cc(-c4ccc(-c5cccs5)cc4)nn3)CN2C1=O [MG-I-13] (H-DNI[X1][Trp(5-Br)]K-NH2; lactam 1-6; N-terminus and C-terminus assumed) | 2.5 | –
2 | CC[C@H](C)[C@@H]1NC(=O)[C@H](CC(N)=O)NC(=O)[C@@H](N)CC(=O)NCCCC[C@@H](C(N)=O)NC(=O)[C@H](Cc2cn(C)c3ccccc23)NC(=O)[C@@H]2C[C@H](n3cc(-c4ccc(-c5cccs5)cc4)nn3)CN2C1=O [MG-II-39] (H-DNI[X1][Trp(1-Me)]K-NH2; lactam 1-6; N-terminus and C-terminus assumed) | – | 5
